Experimental data published in patent US4500544A, “Ascochlorin derivatives, and pharmaceutical composition containing the same” (Chugai Seiyaku Kabushiki Kaisha, priority 1981, dated 1985).

Columns and labels:
[1] = background; cited from earlier work
[2] = systemic or oral administration; cited from earlier work
[3] = plasma glucose and cholesterol in normal mice fed the compounds (Example 19); assay type: in vivo, ddY male mice; conditions: 0.1% in diet, one week, n=10
Method: Five-week-old ddY male mice (n=10) were given for one week a diet (CE-2 from Nippon Crea Co., Ltd.) containing 0.1% of the sample compounds of the present invention indicated in Table 1. Blood was then withdrawn from the heart and the glucose and cholesterol levels in plasma were measured.

[4] = test system: Hereditary obese diabetic mice C 57BL/Ksj (db^+ /db^+); assay: hereditary obese diabetic mice, diet with 0.1% compound (Example 20); assay type: in vivo, mouse
Method: The amounts of the diet taken drinking water, urine volume and urine glucose excreted were measured daily. The results are indicated in Table 2 in terms of mean value±standard error.

[5] = test system: Ehrlich ascites tumor; assay: life span of mice with Ehrlich ascites tumor (Example 22); assay type: in vivo, ddY male mice; conditions: 2 mg i.p. once a day for 7 days
Method: 10^6 Cells of Ehrlich ascites tumor were transplanted in five-week-old ddY male mice and from the 24th hour onward, they were injected intraperitoneally the compounds indicated in Table 4 of the present invention once a day for 7 consecutive days. Each injection contained 2 mg of the test compounds. The efficacy of the compounds is indicated in Table 4 in terms of their life span.

[6] = test system: L-1210 leukemia; assay: prevention of L-1210 leukemia by pretreatment one week before transplantation (Example 23); assay type: in vivo, BDF1 female mice; conditions: 2 mg i.p. one week before 10^2 cells
Method: Four-week-old BDF1 female mice were injected intraperitoneally with suspensions of 2 mg of 4-O-hydroxycarbonylmethyl ester of ascochlorin in 1% tragacanth gum. A control group was injected only with 1% tragacanth gum. One week later, 10^2 cells of L-1210 leukemia were transplanted in the mice.

[7] = test system: adipocytes of streptozotocin-diabetic rats; assay: adipocytes from orally treated streptozotocin-diabetic rats; assay type: in vivo; conditions: oral once daily for 2 weeks
Method: The mechanism of action of the compounds of the present invention was evaluated using adipocytes derived from diabetic animals which orally received the compounds for a given period.

[8] = test system: adipocytes of hereditary obese diabetic mouse, strain C 57BL/KsJ (db^+ /db^+); assay: adipocytes from orally treated hereditary obese diabetic mice; assay type: in vivo; conditions: oral, 1 week
From the text: The hereditary obese diabetic mouse, strain C 57BL/KsJ (db^+ /db^+), is an excellent model of human type II diabetes mellitus.

[9] = test system: hepatic lipogenesis in streptozotocin-diabetic mice; assay: hepatic lipogenesis in streptozotocin-diabetic mice; assay type: in vivo; conditions: oral, a week; untreated diabetic controls one half of normal
From the text: Potentiation of insulin action by the compounds of the present invention is corroborated by restoration of hepatic lipogenesis in streptozotocin-diabetic mice. Streptozotocin diabetic mice greatly deteriolate hepatic lipogenesis due to insulin deficiency.

[10] = test system: Hereditary obese diabetic mice C 57BL/Ksj (db^+ /db^+); assay: hereditary obese diabetic mice, diet with 0.05% compound, intake and urine (Example 24); assay type: in vivo, mouse
Method: Hereditary obese diabetic mice C 57BL/Ksj (db^+ /db^+), 12 weeks old, were fed commercial pellet diet (CE-2 from Nippon Crea Co., Ltd.) for a week and they were treated with CE-2 pellet containing 0.05% of 4-O-nicotinoylascochlorin for a week. The daily amounts of the diet intake, drinking water, urine volume and urine glucose excreted were measured before and during the treatment.

[11] = serum lipid and glucose in normal mice fed the compounds (Example 25); assay type: in vivo, ddY male mice
Method: Five-week-old ddY male mice were given for one week a diet (CE-2 from Nippon Crea Co., Ltd.) containing 0.05% of the compounds of the present invention indicated in Table 7. On the 7th day, the mice were sacrificed and the levels of lipid and glucose in their serum were measured.

[12] = test system: streptozotocin diabetic ddY mice; assay: streptozotocin-diabetic mice, plasma glucose and lipid (Example 26); assay type: in vivo, ddY male mice
Method: Five-week-old ddY male mice […] were injected intraperitoneally 150 mg/kg of streptozotocin, and after 24 hours onward, they were given for one week a diet (CE-2 from Nippon Crea Co., Ltd.) containing 0.05% of 4-O-nicotinoyl ascochlorin. A control group was given only CE-2. On the 7th day, the animals were sacrificed and the levels of glucose and lipid in their plasma were measured.

[13] = test system: Hereditary obese diabetic mice C57BL/Ksj (db^+ /db^+); assay: hereditary obese diabetic mice, plasma glucose and lipid (Example 27); assay type: in vivo, mouse
Method: Hereditary obese diabetic mice C57BL/Ksj (db^+ /db^+) were given for one week a diet (CE-2 from Nippon Crea Co., Ltd.) containing 0.05% of 4-O-nicotinoyl ascochlorin. A control group of the same age was given only CE-2. One week later, the animals were sacrificed and the levels of plasma glucose and lipid were measured.

[14] = background; cited from earlier work; remark: listed apart in the source
[15] = test system: circulatory system of mammals; conditions: background; cited from earlier work
[16] = vs one week prior to administration

Compound: COc1c(Cl)c(C)c(C=O)c(O)c1C/C=C(C)/C=C/C1(C)C(C)CCC(=O)C1C (centres unmarked)
- water solubility [1]: low in water solubility
- level in blood [2]: not easily increased even if it is administered systemically or orally

Compound: CC(/C=C/C1(C)C(C)CCC(=O)C1C)=C\Cc1c(O)c(C=O)c(C)c(Cl)c1OCC(=O)O (centres unmarked) [Example 4, 4-O-carboxymethyl ascochlorin]
- total cholesterol in plasma ([3]; control 135.9 ± 4.8): 107.9 ± 4.5 mg/dL
- plasma glucose ([3]; control 271.6 ± 0.4): 217.6 ± 12.2 mg/dL
- urine volume ([4]; 0.1% in diet, one week administration, prior 5.95 ± 0.20, n=10): 2.07 ± 0.23 ml/mouse/day
- diet intake ([4]; 0.1% in diet, one week administration, prior 6.35 ± 0.13, n=10): 6.37 ± 0.28 g/mouse/day
- drinking water ([4]; 0.1% in diet, one week administration, prior 14.7 ± 0.3, n=10): 10.4 ± 0.3 ml/mouse/day
- urine glucose concentration ([4]; 0.1% in diet, one week administration, prior 97.4 ± 3.4, n=10): 52.9 ± 5.52 mg/mL
- urine glucose ([4]; 0.1% in diet, one week administration, prior 579.5 ± 21.1, n=10): 106.8 ± 19.5 mg/mouse/day
- drinking water, change [4, 16]: -29.3%
- urine glucose concentration, change [4, 16]: -45.7%
- urine glucose, change [4, 16]: -81.5%
- urine volume, change [4, 16]: -65.2%
- Days survived ([5]; n=8, control 15.5 ± 2.12): > 25.3 ± 4.65 days
- T/0 (%) ([5]; control 100): 163%
- Survived 50 days or more ([6]; control 0, P < 0.01): 7
- Died ([6]; control 20 died): 13
- 2-deoxyglucose uptake, and conversion of glucose to carbon dioxide and lipids in adipocytes [7]: greatly increased
- ^125 I-insulin binding to adipocytes ([7]; vs normal and diabetic control): increased ^125 I-insulin binding to adipocytes above normal and diabetic control levels
- 2-deoxyglucose uptake, and conversion of glucose to carbon dioxide and lipid [8]: increased
- increment in ^125 I-insulin binding to adipocytes ([8]; above age-matched untreated diabetic controls): 1.5-3.0 fold
- incorporation of acetate into hepatic total fatty acid and triglyceride [9]: restored to normal control levels

Compound: CC(/C=C/C1(C)C(C)CCC(=O)C1C)=C\Cc1c(O)c(C=O)c(C)c(Cl)c1OC(=O)c1cccnc1 (centres unmarked) [Example 11, 4-O-nicotinoyl ascochlorin]
- polydipsia, polyuria and urine glucose excretion (in words) ([10]; 0.05% in diet, one week): improved polydipsis and polyurea and inhibited excretion of urine gluclose
- urine volume ([10]; 0.05% in diet, one week, n=5, control period 8.60 ± 0.35): 5.20 ± 0.36 ml/mouse/day
- drinking water ([10]; 0.05% in diet, one week, n=5, control period 14.55 ± 0.33): 11.16 ± 0.52 ml/mouse/day
- urine glucose concentration ([10]; 0.05% in diet, one week, n=5, control period 130.6 ± 5.7): 106.3 ± 2.9 mg/mL
- urine glucose ([10]; 0.05% in diet, one week, n=5, control period 1129 ± 96): 554 ± 43 mg/mouse/day
- diet intake ([10]; 0.05% in diet, treatment period one week, n=5, control period 4.85 ± 0.06, NS): 4.26 ± 0.39 g/mouse/day
- drinking water, change ([10]; vs control period): -23.30%
- urine glucose concentration, change ([10]; vs control period): -18.6%
- urine glucose, change ([10]; vs control period): -50.9%
- urine volume, change ([10]; vs control period): -39.5%
- lipid level in serum (in words) ([11]; 0.05% in diet, one week): could also reduce the lipid level in serum
- free fatty acid in serum ([11]; 0.05% in diet, one week, n=8, control 25.3 ± 1.62): 21.2 ± 0.62 mg/dL
- neutral fat in serum ([11]; 0.05% in diet, one week, n=8, control 134.7 ± 8.6): 102.0 ± 10.5 mg/dL
- total cholesterol in serum ([11]; 0.05% in diet, one week, n=8, control 135.9 ± 4.8): 106.7 ± 5.5 mg/dL
- serum glucose ([11]; 0.05% in diet, one week, n=8, control 293.0 ± 13.3): 228.0 ± 16.8 mg/dL
- free fatty acid in serum, change ([11]; vs control): -16.3%
- neutral fat in serum, change ([11]; vs control): -24.3%
- serum glucose, change ([11]; vs control): -22.2%
- total cholesterol in serum, change ([11]; vs control): -21.5%
- blood glucose and plasma triglyceride (in words) ([12]; 0.05% in diet, one week): could inhibit significantly the increase in the levels of blood glucose and triglyceride in plasma
- free aliphatic acid in plasma ([12]; 0.05% in diet, one week, control 22.4 ± 1.4): 20.5 ± 1.2 mg/dL
- plasma glucose ([12]; 0.05% in diet, one week, control 453.6 ± 38.0): 351.3 ± 23.0 mg/dL
- free aliphatic acid in plasma, change ([12]; vs control): -8%
- plasma glucose, change ([12]; vs control): -23%
- plasma lipid and glucose levels (in words) ([13]; 0.05% in diet, one week): could reduce significantly the high plasma lipid and glucose levels
- plasma free fatty acid ([13]; 0.05% in diet, one week, n=7, control 27.7 ± 1.8): 26.1 ± 1.4 mg/dL
- plasma triglyceride ([13]; 0.05% in diet, one week, n=7, control 170.7 ± 16.3): 115.5 ± 14.9 mg/dL
- immunoreactive insulin in plasma ([13]; 0.05% in diet, one week, n=7, control 236.6 ± 91.0): 257.3 ± 91.3 μU/ml
- plasma glucose ([13]; 0.05% in diet, one week, n=7, control 453.6 ± 38.0): 351.3 ± 23.0 mg/dL
- plasma glucose, change ([13]; vs control): -23%
- plasma triglyceride, change ([13]; vs control): -32.3%
- incorporation of acetate into hepatic total fatty acid and triglyceride [9]: restored to normal control levels

Compound: CC(/C=C/[C@@]1(C)[C@H](C)CCC(=O)[C@@H]1C)=C\Cc1c(O)c(Cl)c(C)c(C=O)c1O [Ascochlorin]
- anti-viral and anti-tumor effects [14]: high anti-viral and anti-tumor effects
- toxicity to the circulatory system [15]: highly toxic to the circulatory system of mammals
